Results: ChEMBL document CHEMBL5678818, “Discovery of potent SOS1 inhibitors that block RAS activation via disruption of the RAS-SOS1 interaction” (Proc Natl Acad Sci U S A, 2019)

How the values were obtained:
[1] = biological target: Calcium/calmodulin-dependent protein kinase kinase 1 (Homo sapiens) (UniProt Q8N5S9); experiment: Inhibition of CAMKK1 (unknown origin) assessed as residual activity at 1000 nM by KINOMEscan analysis relative to control
[2] = test system: Epidermal growth factor receptor (Homo sapiens), P00533 [UNDEFINED MUTATION]; experiment: Inhibition of EGFR S752-I759del mutant (unknown origin) assessed as residual activity at 1000 nM by KINOMEscan analysis relative to control
Sequence of Epidermal growth factor receptor (Homo sapiens), P00533 [UNDEFINED MUTATION] (P00533 whole entry, looked up, stated change not applied): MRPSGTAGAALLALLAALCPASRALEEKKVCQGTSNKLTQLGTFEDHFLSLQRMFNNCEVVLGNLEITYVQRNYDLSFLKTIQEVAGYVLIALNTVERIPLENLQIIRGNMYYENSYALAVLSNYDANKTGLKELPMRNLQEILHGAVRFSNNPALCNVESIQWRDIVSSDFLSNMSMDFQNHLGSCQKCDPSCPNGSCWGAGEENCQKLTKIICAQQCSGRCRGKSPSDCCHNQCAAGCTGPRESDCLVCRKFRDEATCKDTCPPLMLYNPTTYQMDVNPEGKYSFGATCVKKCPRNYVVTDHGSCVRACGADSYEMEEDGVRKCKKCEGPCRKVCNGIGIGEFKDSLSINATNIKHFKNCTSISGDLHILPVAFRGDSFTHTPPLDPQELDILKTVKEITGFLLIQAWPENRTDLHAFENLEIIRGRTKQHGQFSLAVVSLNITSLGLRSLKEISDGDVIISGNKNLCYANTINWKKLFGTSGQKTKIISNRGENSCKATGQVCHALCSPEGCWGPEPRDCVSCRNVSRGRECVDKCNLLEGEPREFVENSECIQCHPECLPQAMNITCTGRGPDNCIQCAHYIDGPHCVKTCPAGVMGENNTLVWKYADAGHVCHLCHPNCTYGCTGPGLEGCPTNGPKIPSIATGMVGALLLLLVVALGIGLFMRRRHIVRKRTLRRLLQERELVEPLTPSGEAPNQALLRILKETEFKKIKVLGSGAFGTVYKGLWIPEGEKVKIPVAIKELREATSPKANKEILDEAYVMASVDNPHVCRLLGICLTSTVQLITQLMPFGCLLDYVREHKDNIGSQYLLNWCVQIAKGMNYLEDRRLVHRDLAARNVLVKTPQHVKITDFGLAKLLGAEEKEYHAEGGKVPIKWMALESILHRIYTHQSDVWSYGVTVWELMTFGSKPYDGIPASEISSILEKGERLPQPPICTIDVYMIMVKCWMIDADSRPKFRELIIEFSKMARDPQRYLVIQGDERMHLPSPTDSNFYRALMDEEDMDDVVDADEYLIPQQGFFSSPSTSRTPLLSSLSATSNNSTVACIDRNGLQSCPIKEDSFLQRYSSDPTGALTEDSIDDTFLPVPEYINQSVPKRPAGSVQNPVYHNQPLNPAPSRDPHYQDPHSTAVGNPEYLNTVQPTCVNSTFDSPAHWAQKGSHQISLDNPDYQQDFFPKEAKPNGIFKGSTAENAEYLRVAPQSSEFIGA

[3] = biological target: T1, Ephrin type-B receptor 1 (Homo sapiens) (UniProt P54762); experiment: Inhibition of EPHB1 (unknown origin) assessed as residual activity at 1000 nM by KINOMEscan analysis relative to control
T1 sequence (whole entry): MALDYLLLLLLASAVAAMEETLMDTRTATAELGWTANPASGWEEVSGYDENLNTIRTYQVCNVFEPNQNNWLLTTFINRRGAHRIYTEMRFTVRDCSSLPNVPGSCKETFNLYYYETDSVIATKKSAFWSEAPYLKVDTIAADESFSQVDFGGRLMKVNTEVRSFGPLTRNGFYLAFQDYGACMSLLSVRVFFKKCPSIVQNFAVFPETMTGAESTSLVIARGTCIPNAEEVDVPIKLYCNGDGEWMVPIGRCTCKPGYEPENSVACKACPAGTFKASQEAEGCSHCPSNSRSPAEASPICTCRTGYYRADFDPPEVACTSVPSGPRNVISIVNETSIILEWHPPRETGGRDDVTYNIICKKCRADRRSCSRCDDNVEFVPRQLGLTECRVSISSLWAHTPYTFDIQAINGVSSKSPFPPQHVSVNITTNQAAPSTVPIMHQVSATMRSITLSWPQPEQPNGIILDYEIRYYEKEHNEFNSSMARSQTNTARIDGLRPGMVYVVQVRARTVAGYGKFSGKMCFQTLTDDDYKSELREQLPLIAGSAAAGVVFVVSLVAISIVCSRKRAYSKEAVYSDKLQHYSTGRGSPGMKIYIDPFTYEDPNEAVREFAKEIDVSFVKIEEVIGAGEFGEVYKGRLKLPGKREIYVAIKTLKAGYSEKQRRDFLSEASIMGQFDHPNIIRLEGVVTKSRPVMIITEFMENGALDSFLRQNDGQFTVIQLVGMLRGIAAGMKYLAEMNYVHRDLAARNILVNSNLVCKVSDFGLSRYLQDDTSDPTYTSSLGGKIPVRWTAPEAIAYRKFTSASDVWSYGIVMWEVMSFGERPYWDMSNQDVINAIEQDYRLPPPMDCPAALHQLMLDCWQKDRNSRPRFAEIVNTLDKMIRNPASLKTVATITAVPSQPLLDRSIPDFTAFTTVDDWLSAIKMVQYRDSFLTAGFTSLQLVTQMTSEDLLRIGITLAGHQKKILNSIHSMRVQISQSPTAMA

[4] = biological target: T2, Serine/threonine-protein kinase haspin (Homo sapiens) (UniProt Q8TF76); experiment: Inhibition of HASPIN (unknown origin) assessed as residual activity at 1000 nM by KINOMEscan analysis relative to control
T2 sequence (whole entry): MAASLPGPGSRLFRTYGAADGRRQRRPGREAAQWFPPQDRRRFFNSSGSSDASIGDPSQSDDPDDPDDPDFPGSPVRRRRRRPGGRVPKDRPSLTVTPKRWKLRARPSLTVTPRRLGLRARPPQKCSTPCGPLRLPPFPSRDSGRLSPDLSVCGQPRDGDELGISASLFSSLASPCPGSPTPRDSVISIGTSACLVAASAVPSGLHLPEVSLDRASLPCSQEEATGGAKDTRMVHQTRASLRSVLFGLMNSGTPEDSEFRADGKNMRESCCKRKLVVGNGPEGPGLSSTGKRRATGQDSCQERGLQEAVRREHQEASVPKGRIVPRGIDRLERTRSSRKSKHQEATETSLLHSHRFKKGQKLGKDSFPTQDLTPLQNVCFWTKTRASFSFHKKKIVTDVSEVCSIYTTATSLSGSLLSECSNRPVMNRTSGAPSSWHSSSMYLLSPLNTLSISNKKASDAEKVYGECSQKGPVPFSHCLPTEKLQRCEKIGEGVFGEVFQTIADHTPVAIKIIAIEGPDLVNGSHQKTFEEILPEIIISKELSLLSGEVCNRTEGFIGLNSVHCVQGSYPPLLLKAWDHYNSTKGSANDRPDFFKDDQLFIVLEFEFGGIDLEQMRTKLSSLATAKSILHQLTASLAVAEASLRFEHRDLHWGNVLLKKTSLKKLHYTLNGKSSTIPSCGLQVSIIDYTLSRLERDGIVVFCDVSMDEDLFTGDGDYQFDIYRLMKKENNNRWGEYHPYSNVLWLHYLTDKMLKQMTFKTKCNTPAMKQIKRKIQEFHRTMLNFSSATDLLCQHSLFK

[5] = biological target: Tyrosine-protein kinase JAK1 (Homo sapiens) (UniProt P23458); experiment: Inhibition of JAK1 JH1 catalytic domain (unknown origin) assessed as residual activity at 1000 nM by KINOMEscan analysis relative to control
[6] = biological target: Tyrosine-protein kinase JAK2 (Homo sapiens) (UniProt O60674); experiment: Inhibition of JAK2 JH1 catalytic domain (unknown origin) assessed as residual activity at 1000 nM by KINOMEscan analysis relative to control
Sequence of Tyrosine-protein kinase JAK2 (Homo sapiens) (O60674 whole entry, the tested form may be a part): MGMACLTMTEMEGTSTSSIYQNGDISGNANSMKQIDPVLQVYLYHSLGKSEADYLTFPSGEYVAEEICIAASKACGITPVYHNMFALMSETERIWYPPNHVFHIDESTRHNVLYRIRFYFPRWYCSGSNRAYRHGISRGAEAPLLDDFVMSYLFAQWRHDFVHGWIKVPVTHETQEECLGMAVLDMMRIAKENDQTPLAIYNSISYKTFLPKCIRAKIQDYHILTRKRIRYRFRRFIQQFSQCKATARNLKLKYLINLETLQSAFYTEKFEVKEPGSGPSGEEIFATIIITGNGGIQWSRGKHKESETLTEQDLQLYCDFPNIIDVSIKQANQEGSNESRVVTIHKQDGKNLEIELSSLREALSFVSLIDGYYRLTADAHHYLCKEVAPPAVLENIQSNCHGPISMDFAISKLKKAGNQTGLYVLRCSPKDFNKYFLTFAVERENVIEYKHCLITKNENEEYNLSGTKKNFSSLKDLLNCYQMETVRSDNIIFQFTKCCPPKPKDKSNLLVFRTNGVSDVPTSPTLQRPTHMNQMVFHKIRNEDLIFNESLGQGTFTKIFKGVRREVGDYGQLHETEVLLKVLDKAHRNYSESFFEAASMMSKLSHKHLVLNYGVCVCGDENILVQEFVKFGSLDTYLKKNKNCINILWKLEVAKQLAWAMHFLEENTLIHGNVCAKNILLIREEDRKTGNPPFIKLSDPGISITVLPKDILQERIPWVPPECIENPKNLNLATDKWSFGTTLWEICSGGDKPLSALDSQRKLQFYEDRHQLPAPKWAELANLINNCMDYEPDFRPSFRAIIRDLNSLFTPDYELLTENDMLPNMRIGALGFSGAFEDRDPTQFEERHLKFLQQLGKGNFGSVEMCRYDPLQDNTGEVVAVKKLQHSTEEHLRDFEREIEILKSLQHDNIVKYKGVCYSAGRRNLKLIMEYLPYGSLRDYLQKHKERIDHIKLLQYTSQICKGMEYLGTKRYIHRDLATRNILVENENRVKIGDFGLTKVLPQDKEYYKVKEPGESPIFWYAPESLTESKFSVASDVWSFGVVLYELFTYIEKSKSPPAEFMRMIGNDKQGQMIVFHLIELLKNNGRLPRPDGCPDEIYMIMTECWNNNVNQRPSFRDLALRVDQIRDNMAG

[7] = biological target: Myosin-IIIa (Homo sapiens) (UniProt Q8NEV4); experiment: Inhibition of MYO3A (unknown origin) assessed as residual activity at 1000 nM by KINOMEscan analysis relative to control
[8] = test system: Phosphatidylinositol 4,5-bisphosphate 3-kinase catalytic subunit alpha isoform (Homo sapiens), P42336 [E542K]; experiment: Inhibition of PIK3CA E542K mutant (unknown origin) assessed as residual activity at 1000 nM by KINOMEscan analysis relative to control
[9] = biological target: Protein kinase C delta type (Homo sapiens) (UniProt Q05655); experiment: Inhibition of PRKCD (unknown origin) assessed as residual activity at 1000 nM by KINOMEscan analysis relative to control
[10] = test system: Proto-oncogene tyrosine-protein kinase receptor Ret (Homo sapiens), P07949 [M918T]; experiment: Inhibition of RET M918T mutant (unknown origin) assessed as residual activity at 1000 nM by KINOMEscan analysis relative to control
[11] = biological target: Proto-oncogene tyrosine-protein kinase ROS (Homo sapiens) (UniProt P08922); experiment: Inhibition of ROS1 (unknown origin) assessed as residual activity at 1000 nM by KINOMEscan analysis relative to control
Sequence of Proto-oncogene tyrosine-protein kinase ROS (Homo sapiens) (P08922 whole entry): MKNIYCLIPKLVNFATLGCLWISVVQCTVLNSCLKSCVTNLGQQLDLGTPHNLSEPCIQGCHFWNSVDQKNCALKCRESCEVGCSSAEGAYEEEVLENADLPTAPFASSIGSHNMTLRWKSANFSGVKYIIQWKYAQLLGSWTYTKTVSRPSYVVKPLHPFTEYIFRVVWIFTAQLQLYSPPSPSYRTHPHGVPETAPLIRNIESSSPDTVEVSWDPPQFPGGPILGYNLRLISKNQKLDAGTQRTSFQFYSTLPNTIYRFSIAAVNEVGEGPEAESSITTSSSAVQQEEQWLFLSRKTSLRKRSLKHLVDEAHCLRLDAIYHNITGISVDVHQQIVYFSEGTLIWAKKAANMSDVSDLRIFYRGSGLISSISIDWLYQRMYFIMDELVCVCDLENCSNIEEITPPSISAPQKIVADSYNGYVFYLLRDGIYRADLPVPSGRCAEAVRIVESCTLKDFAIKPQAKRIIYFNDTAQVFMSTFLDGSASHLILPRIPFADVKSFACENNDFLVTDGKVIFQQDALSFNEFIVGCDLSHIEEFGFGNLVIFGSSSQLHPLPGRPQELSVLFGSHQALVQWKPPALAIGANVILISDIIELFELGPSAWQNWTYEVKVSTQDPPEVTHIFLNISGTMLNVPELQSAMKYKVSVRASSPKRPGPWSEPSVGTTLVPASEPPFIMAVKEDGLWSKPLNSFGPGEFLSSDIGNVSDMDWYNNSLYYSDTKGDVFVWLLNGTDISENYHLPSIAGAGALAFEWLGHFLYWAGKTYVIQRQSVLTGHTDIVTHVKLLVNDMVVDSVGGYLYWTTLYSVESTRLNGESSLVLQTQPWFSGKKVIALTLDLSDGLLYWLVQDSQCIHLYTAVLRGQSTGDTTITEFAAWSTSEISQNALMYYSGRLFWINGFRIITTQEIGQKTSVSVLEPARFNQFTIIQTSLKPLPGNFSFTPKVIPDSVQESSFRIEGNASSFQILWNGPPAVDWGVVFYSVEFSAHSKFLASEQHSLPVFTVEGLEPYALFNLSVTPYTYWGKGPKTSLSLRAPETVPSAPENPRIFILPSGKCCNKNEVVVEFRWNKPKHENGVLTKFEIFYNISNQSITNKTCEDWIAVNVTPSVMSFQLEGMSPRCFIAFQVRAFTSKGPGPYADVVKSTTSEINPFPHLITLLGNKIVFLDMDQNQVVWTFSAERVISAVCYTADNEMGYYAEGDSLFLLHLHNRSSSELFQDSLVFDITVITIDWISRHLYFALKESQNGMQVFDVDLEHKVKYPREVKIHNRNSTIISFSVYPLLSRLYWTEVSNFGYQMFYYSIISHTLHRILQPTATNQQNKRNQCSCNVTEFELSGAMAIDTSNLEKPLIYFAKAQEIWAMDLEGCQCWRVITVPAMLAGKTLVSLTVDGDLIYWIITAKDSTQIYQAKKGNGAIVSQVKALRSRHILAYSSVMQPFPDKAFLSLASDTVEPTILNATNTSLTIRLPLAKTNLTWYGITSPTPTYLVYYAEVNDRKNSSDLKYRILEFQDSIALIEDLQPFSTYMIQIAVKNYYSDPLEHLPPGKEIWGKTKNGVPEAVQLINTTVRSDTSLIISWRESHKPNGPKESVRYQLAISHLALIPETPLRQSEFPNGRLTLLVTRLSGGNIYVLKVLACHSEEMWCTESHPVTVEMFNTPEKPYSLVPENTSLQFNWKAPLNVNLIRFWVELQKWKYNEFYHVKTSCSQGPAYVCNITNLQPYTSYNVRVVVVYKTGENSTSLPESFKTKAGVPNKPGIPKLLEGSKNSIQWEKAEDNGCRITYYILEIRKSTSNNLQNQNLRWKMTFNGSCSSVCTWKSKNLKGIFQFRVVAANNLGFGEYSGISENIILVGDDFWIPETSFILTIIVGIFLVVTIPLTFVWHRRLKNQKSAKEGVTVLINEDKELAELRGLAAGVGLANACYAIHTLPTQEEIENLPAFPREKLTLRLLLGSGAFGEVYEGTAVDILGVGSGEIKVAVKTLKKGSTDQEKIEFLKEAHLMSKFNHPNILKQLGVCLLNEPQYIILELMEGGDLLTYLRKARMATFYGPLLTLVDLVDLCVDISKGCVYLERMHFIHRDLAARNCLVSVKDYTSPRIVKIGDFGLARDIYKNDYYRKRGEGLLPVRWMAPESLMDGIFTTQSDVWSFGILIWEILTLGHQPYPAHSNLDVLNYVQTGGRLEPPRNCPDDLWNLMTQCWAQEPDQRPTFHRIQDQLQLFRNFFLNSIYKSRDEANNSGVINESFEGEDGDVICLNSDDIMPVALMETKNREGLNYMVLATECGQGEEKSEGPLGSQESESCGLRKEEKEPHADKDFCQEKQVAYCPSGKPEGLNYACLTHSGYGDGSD

[12] = biological target: SRSF protein kinase 1 (Homo sapiens) (UniProt Q96SB4); experiment: Inhibition of SRPK1 (unknown origin) assessed as residual activity at 1000 nM by KINOMEscan analysis relative to control
[13] = biological target: Tyrosine-protein kinase receptor Tie-1 (Homo sapiens) (UniProt P35590); experiment: Inhibition of TIE1 (unknown origin) assessed as residual activity at 1000 nM by KINOMEscan analysis relative to control
[14] = biological target: Mitogen-activated protein kinase kinase kinase 20 (Homo sapiens) (UniProt Q9NYL2); experiment: Inhibition of ZAK (unknown origin) assessed as residual activity at 1000 nM by KINOMEscan analysis relative to control

| SMILES | Activity [1] [%] | Activity [2] [%] | Activity [3] [%] | Activity [4] [%] | Activity [5] [%] | Activity [6] [%] | Activity [7] [%] | Activity [8] [%] | Activity [9] [%] | Activity [10] [%] | Activity [11] [%] | Activity [12] [%] | Activity [13] [%] | Activity [14] [%] |
| --- | --- | --- | --- | --- | --- | --- | --- | --- | --- | --- | --- | --- | --- | --- |
| COc1cc2ncnc(N[C@H](C)c3cccc4ccccc34)c2cc1OC | 97 | 13 | 100 | 99 | 87 | 89 | 97 | 96 | 81 | 100 | 90 | 98 | 100 | 89 |
| COc1cc2nc(C)nc(N[C@H](C)c3cccc(-c4cn[nH]c4)c3)c2cc1OC | 73 | 82 | 77 | 81 | 100 | 74 | 92 | 78 | 59 | 60 | 100 | 77 | 87 | 89 |
